Tests used:
[1] = biological target: MAO B (Homo sapiens (Human), UniProt P27338); test: Monoamine Oxidase assay (MAO-Glo), MAO B; format: biochemical
Description: (§1) Recombinant (expressed in baculovirus infected BTI insect cells) monoamine oxidase A and monoamine oxidase B (Catalog No. M7316 and M7441, respectively) were purchased from Sigma-Aldrich Co. LLC. […] MAO-Glo™ Assay Kit was purchased from Promega Corporation (Madison, Wis.).
(§2) Briefly, 6.25 μL of test compound was added to each well of a 384-well plate. Enzyme (either MAO A or B) was added (12.5 μL in 2× buffer containing 1 μg protein) and allowed to incubate for 5 minutes. Finally, 6.25 μL of 4×MAO substrate was added to each well. Following a one hour incubation, 25 μL of Luciferin detection reagent was added to each well, and incubated for 20 minutes. Luminescence was then measured on an Envision microplate reader.
(§3) IC50 values are determined using GraphPad Prism 5 software. The data were entered as an X-Y plot into the software as percent inhibition for each concentration of the drug. The concentration values of the drug were log transformed and the nonlinear regression was carried out using the “sigmoidal dose-response (variable slope)” option within the GraphPad software to model the data and calculate IC50 values.

[2] = biological target: MAO A (Homo sapiens (Human), UniProt P21397); test: Monoamine Oxidase assay (MAO-Glo), MAO A; format: biochemical
Description: as §1, §2, §3

[3] = biological target: LSD1 (Homo sapiens (Human), UniProt O60341); test: LSD1 Histone Demethylase Assay (LSD1 Inhibitor Screening Assay Kit); format: biochemical; conditions: for LSD1 biochemical activity (in words): SAR discussion
Description: Briefly, test compounds were diluted to 20× the desired test concentration in 100% DMSO and 2.5 μL of the diluted drug sample was added to a black 384-well plate. The LSD1 enzyme stock was diluted 17-fold with assay buffer and 40 μM of the diluted LSD1 enzyme was added to the appropriate wells.
as §3

[4] = system: T-47D cells; test: Cell Viability Assay (ATPlite), T-47D; format: cell-based; conditions: Homo sapiens, T47D, 96-hours of incubation, read-out: Cell Growth, IC50
Description: Cells were cultured according to the procedures provided. […] Cells were cultured at 37° C. and 5% CO2.
as §3

[5] = system: MDA-MB-235; test: Cell Viability Assay (ATPlite), MDA-MB-235; format: cell-based; conditions: 96-hours of incubation, read-out: Cell Growth, IC50
Description: Cancer cell lines were obtained from ATCC. Cells were cultured according to the procedures provided. In addition to the supplements indicated in Table 4, media were also supplemented with 1% penicillin/streptomycin (100 IU/mL penicillin and 100 μg/mL streptomycin). Cells were cultured at 37° C. and 5% CO2. ATCC is the American Type Culture Collection (Manassas, Va.).
Cell viability was determined using ATPlite™ Luminescence Assay System (PerkinElmer Inc., Waltham, Mass.) using the various cell-lines described above and in Table 4. Briefly, cells were seeded in 96-well plates and then treated with different concentrations of inhibitor (0.1% final DMSO concentration). After 96-hours of incubation, ATPlite detection reagent was added directly to the culture well. Luminescence was read 5 minutes later on an Envision microplate reader.

Chain of MAO B (P27338 whole entry): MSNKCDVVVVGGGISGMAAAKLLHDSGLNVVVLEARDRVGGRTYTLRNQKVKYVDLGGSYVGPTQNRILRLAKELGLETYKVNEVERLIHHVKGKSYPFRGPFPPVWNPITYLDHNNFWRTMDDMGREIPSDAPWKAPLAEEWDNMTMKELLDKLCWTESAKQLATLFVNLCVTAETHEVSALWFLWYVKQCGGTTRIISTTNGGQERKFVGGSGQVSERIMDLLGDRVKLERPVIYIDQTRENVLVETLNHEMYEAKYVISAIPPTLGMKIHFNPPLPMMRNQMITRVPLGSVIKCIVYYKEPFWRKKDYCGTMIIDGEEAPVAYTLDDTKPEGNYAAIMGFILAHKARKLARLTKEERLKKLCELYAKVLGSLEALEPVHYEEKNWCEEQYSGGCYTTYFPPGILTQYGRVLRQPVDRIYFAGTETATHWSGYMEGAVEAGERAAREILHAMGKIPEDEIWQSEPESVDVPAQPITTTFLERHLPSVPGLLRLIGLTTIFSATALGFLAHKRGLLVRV
Chain of MAO A (P21397 whole entry): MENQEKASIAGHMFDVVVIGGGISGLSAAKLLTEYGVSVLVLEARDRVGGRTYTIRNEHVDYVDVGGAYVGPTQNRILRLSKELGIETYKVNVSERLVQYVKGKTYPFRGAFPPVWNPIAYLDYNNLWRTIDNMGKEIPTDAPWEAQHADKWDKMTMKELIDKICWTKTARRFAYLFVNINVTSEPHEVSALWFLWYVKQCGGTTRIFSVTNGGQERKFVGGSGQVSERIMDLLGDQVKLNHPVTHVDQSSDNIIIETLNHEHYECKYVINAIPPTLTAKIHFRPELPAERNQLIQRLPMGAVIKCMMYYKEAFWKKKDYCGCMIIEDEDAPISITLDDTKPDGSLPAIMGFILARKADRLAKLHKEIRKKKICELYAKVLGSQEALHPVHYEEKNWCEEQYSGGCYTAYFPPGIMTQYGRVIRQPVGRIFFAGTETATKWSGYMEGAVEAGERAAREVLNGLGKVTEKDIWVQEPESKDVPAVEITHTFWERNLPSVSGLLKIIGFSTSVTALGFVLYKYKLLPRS

Compound	LSD1 biochemical activity (in words) [3]	IC50 [4] [nM]	further results
O=C(N/N=C/c1ccccc1O)c1ccc(O)cc1 [Compound 1]	–	–	activity against MAO B (in words) [1]: comparable activity to tranylcypromine; activity against MAO A (in words) [2]: no activity
COc1ccc(Cl)cc1C(=O)NNC(=O)c1cc(S(=O)(=O)N2CCOCC2)ccc1F [Compound 6]	lack of biochemical activity	> 10000	–
O=C(NNC(=O)c1cc(S(=O)(=O)N2CCOCC2)ccc1F)c1cccc(Cl)c1 [Compound 7]	–	> 10000	–
CCN(CC)S(=O)(=O)c1ccc(F)c(C(=O)NNC(=O)c2ccc(C)cc2)c1 [Compound 8]	lower activity	> 10000	–
C/C(=N\NC(=O)c1cccc(S(=O)(=O)N2CCOCC2)c1)c1cccc2ccccc12 [Compound 10]	lower activity	> 10000	IC50 [3]: > 10000 nM
C/C(=N\NC(=O)c1cccc(S(=O)(=O)N2CCOCC2)c1)c1cc(Cl)ccc1O [Compound 12, (E)-N′-(1-(5-chloro-2-hydroxyphenyl)ethylidene)-3-(morpholinosulfonyl)benzohydrazide]	–	–	IC50 [5]: 728 nM; IC50 [1]: > 300000 nM; IC50 [2]: > 300000 nM
C/C(=N\NC(=O)c1cccc(S(=O)(=O)N2CCOCC2)c1)c1ccnc(Cl)c1 [Compound 15, (E)-N′-(1-(2-chloropyridin-4-yl)ethylidene)-3-(morpholinosulfonyl)benzohydrazide]	drop in biochemical activity	> 10000	–
C/C(=N\NC(=O)c1cccc(S(=O)(=O)N2CCOCC2)c1)c1cc(Cl)ccc1Cl [Compound 16, (E)-N′-(1-(2,5-dichlorophenyl)ethylidene)-3-(morpholinosulfonyl)benzohydrazide]	significant drop in activity	> 10000	LSD1 biochemical activity (in words) ([3]; listed as compound 16): activity was decreased
C/C(=N\NC(=O)c1ccc(Cl)c(Br)c1)c1cc(Cl)ccc1O [Compound 17, (E)-3-bromo-4-chloro-N′-(1-(5-chloro-2-hydroxyphenyl)ethylidene)benzohydrazide]	drop in biochemical activity	1700	–
C/C(=N\NC(=O)c1cnc(Cl)c(Br)c1)c1cc(Cl)ccc1O [Compound 19, (E)-5-bromo-6-chloro-N′-(1-(5-chloro-2-hydroxyphenyl)ethylidene)nicotinohydrazide]	drop in biochemical activity	1380	–
C/C(=N\NC(=O)c1cncc(Cl)c1)c1cc(Cl)ccc1O [Compound 20, (E)-5-chloro-N′-(1-(5-chloro-2-hydroxyphenyl)ethylidene)nicotinohydrazide]	drop in biochemical activity	270	–
CC/C(=N\NC(=O)c1cccc(S(=O)(=O)N2CCOCC2)c1)c1cc(Cl)ccc1O [Compound 21, (E)-N′-(1-(5-chloro-2-hydroxyphenyl)propylidene)-3-(morpholinosulfonyl)benzohydrazide]	–	616	–
C/C(=N\NC(=O)c1cccc(S(=O)(=O)N2CCOCC2)c1)c1cccnc1 [Compound 22, (E)-3-(morpholinosulfonyl)-N′-(1-(pyridin-3-yl)ethylidene)benzohydrazide]	drop in biochemical activity	–	–
C/C(=N\NC(=O)c1cncc(S(C)(=O)=O)c1)c1cc(Cl)ccc1O [Compound 24, (E)-N′-(1-(5-chloro-2-hydroxyphenyl)ethylidene)-5-(methylsulfonyl)nicotinohydrazide]	–	–	activity against MAO B (in words) [1]: no activity; activity against MAO A (in words) [2]: no activity
N[C@@H]1CC1c1ccccc1 (stereo partly drawn) [tranylcypromine, reference compound]	–	–	activity against MAO B (in words) [1]: exhibited activity; activity against MAO A (in words) [2]: exhibited activity
